This note sets out measurements from US12364703B2, “Homogeneous ophthalmic composition” (priority 2015, dated 2025).

The nature of the data set: LCMS and standard curve analysis of the concentration of each active ingredient in solution. Format: physicochemical. Conditions: three samples of solutions containing the three active ingredients; LCMS, standard curve. As for the experimental part:
Separate stock solutions of moxifloxacin HCI, dexamethasone, and sodium bromfenac were used as standards. Three different samples of solutions containing the three active ingredients, i.e., moxifloxacin HCI, dexamethasone, and sodium bromfenac were analyzed for the concentration of moxifloxacin in solution, the concentration of dexamethasone in solution, and the concentration of sodium bromfenac in solution.

Where a name gives a salt, the structure may show the parent alone.

For `Nc1c(CC(=O)O)cccc1C(=O)c1ccc(Br)cc1` [bromfenac sodium], the “Concentration in Solution” value worked out at 40.5 µg/mL.

For the compound `COc1c(N2C[C@@H]3CCCN[C@@H]3C2)c(F)cc2c(=O)c(C(=O)O)cn(C3CC3)c12` [moxifloxacin HCI, moxifloxacin hydrochloride], the “Concentration in Solution” value worked out at 5458 µg/mL.
